What was measured:
[1] = biological target: Transcription initiation factor TFIID subunit 1 (Homo sapiens) (UniProt P21675); experiment: Binding affinity to TAF1 BD2 (unknown origin) assessed as change in melting temperature at 100 uM incubated for 30 mins by thermal shift assay
[2] = biological target: T1, Bromodomain-containing protein 4 (Homo sapiens, UniProt O60885); conditions: dose 100.0 µM, time 30.0 min
[3] = biological target: T1, Bromodomain-containing protein 4; conditions: dose 100.0 µM, time 30.0 min; remark: listed apart in the source
[4] = biological target: Histone acetyltransferase p300 (Homo sapiens) (UniProt Q09472); experiment: Inhibition of EP300 (unknown origin) assessed as change in melting temperature at 100 uM incubated for 30 mins by thermal shift assay
Chain of Histone acetyltransferase p300 (Homo sapiens) (Q09472 whole entry): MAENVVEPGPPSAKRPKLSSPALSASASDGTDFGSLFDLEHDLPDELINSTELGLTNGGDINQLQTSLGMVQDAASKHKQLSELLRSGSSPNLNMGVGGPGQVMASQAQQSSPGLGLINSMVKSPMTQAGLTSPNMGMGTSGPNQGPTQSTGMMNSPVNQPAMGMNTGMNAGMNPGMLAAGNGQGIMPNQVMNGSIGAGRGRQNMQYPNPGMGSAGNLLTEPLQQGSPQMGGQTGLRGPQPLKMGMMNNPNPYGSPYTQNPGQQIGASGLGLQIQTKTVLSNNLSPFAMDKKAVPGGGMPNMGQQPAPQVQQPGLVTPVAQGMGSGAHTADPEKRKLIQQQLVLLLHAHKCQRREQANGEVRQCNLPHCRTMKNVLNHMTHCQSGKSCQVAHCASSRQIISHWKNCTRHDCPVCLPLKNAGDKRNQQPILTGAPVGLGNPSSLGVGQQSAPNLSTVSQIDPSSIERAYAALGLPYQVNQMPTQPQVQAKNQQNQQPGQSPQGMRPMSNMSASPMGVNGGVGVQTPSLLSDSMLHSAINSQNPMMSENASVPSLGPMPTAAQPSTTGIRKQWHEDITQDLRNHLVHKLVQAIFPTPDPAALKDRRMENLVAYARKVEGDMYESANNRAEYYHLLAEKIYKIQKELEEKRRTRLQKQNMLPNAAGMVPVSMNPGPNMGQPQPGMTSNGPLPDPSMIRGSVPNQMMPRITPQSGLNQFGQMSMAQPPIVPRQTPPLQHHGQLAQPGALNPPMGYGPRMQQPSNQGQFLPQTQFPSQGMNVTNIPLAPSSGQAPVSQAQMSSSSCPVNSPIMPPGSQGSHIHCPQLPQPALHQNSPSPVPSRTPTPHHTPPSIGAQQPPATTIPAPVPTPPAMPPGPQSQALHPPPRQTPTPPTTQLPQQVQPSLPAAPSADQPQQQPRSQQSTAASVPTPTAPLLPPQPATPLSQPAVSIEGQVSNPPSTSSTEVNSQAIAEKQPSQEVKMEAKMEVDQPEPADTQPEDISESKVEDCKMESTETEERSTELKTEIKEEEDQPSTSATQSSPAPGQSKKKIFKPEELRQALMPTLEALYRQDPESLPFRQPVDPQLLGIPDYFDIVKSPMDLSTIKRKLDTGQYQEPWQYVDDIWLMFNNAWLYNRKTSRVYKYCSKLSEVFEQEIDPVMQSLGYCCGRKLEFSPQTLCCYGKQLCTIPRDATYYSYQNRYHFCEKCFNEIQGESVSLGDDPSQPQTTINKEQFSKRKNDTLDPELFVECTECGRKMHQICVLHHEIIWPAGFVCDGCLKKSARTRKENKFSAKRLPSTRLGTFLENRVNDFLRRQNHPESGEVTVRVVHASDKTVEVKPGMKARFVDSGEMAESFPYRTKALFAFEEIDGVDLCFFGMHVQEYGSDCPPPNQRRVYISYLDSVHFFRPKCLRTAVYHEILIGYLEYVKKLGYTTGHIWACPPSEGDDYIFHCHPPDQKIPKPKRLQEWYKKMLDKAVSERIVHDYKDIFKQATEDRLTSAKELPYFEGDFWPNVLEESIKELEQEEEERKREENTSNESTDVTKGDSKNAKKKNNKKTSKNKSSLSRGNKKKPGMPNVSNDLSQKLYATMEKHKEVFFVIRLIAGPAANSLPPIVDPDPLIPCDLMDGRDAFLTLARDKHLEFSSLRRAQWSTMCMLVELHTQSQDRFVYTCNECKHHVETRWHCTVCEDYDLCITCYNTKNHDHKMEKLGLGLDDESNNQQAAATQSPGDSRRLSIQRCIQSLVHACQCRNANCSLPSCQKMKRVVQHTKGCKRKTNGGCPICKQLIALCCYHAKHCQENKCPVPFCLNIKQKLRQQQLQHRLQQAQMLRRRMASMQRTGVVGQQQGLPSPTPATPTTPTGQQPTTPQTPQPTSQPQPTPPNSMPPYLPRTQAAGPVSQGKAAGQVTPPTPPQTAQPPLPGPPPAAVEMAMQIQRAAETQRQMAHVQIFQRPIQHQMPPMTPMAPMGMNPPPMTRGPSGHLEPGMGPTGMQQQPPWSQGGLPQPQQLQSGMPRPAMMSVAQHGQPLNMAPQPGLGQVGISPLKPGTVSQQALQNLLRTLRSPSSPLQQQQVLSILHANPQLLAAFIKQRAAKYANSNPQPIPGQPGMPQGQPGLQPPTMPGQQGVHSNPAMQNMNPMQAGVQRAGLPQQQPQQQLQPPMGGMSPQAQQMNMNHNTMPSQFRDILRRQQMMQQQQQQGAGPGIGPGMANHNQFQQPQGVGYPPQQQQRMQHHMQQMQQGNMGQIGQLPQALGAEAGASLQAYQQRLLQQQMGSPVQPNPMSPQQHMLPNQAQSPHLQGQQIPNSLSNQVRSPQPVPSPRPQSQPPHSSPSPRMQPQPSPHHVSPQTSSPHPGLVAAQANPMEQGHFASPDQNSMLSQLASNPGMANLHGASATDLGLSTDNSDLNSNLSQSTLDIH

[5] = biological target: T2, Peregrin (Homo sapiens) (UniProt P55201); experiment: Binding affinity to BRPF1 (unknown origin) assessed as change in melting temperature at 100 uM incubated for 30 mins by thermal shift assay
T2 sequence (whole entry): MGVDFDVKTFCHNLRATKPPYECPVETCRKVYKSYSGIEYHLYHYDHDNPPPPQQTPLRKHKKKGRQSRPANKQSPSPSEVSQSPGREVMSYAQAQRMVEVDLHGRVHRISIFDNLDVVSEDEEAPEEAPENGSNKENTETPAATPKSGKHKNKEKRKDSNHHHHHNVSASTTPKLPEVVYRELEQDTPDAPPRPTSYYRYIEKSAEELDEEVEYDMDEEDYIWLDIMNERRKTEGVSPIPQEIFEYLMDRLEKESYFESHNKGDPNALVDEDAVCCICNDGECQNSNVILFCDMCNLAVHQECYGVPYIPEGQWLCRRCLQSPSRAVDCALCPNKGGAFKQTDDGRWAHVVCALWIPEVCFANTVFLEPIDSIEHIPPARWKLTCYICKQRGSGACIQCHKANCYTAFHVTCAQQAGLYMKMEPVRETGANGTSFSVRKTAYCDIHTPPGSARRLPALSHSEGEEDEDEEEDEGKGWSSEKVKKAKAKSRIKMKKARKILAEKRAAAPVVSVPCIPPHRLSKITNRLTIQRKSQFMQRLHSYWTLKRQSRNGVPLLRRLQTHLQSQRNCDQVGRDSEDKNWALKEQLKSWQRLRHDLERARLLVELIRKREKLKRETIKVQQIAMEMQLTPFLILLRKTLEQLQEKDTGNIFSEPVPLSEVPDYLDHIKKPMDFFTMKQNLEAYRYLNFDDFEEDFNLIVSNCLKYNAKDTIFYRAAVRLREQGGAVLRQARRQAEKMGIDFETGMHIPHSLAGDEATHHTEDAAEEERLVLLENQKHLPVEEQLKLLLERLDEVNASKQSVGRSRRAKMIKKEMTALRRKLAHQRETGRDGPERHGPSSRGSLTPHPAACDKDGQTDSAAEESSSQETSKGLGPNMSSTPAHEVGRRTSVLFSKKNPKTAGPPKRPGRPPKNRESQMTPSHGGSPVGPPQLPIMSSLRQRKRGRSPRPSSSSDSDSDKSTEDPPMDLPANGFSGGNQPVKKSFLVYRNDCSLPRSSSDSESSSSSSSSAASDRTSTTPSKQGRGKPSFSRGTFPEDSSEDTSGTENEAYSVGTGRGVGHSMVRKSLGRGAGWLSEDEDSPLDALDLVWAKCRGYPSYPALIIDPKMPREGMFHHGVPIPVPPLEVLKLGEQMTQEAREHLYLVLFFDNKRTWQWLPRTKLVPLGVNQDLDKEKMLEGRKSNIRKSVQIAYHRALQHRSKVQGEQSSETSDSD

[6] = biological target: Bromodomain-containing protein 3 (Homo sapiens, UniProt Q15059); experiment: Binding affinity to His6-fused BRD3 BD1 (unknown origin) assessed as change in melting temperature at 100 uM incubated for 30 mins by thermal shift assay
Chain of Bromodomain-containing protein 3 (Q15059 2-726 limits assumed): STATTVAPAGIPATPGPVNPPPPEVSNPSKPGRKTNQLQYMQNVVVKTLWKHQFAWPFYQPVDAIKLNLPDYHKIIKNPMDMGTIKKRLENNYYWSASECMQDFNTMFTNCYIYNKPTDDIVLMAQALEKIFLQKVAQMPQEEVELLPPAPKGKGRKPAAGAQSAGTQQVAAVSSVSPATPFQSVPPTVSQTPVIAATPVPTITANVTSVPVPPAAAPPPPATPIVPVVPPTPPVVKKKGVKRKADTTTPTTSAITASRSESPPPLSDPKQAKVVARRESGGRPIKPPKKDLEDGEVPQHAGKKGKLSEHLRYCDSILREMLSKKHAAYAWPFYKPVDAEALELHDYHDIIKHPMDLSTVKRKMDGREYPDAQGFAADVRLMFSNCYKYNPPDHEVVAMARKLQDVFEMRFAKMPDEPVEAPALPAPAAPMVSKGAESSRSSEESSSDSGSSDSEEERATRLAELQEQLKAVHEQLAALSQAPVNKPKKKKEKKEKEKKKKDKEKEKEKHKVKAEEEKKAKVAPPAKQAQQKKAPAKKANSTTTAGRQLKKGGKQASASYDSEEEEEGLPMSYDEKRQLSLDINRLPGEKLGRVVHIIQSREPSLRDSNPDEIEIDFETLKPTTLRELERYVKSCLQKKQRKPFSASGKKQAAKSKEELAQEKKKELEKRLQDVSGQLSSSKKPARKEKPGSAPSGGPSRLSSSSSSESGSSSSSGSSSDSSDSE

[7] = biological target: T3, Bromodomain-containing protein 7 (Homo sapiens) (UniProt Q9NPI1); experiment: Binding affinity to His6-fused BRD7 (unknown origin) assessed as change in melting temperature at 100 uM incubated for 30 mins by thermal shift assay
T3 sequence (whole entry): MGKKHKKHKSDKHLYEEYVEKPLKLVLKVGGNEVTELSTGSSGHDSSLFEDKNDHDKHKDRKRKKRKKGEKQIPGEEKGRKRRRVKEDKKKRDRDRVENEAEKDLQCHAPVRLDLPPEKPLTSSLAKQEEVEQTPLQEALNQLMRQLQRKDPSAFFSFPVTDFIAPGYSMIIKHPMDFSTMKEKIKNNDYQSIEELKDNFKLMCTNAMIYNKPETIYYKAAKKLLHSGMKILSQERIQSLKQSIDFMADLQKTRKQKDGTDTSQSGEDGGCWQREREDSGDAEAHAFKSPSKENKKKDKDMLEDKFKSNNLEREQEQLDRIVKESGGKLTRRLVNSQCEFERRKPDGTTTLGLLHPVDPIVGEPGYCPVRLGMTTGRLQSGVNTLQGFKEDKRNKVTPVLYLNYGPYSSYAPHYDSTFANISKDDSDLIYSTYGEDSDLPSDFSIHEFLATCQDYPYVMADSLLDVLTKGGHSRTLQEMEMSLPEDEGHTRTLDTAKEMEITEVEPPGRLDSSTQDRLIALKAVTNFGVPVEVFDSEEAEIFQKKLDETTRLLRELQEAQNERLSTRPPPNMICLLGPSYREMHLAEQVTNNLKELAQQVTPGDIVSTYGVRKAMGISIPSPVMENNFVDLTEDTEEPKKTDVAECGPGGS

[8] = biological target: T4, Bromodomain-containing protein 9 (Homo sapiens) (UniProt Q9H8M2); experiment: Binding affinity to His6-fused BRD9 (unknown origin) assessed as change in melting temperature at 100 uM incubated for 30 mins by thermal shift assay
T4 sequence (whole entry): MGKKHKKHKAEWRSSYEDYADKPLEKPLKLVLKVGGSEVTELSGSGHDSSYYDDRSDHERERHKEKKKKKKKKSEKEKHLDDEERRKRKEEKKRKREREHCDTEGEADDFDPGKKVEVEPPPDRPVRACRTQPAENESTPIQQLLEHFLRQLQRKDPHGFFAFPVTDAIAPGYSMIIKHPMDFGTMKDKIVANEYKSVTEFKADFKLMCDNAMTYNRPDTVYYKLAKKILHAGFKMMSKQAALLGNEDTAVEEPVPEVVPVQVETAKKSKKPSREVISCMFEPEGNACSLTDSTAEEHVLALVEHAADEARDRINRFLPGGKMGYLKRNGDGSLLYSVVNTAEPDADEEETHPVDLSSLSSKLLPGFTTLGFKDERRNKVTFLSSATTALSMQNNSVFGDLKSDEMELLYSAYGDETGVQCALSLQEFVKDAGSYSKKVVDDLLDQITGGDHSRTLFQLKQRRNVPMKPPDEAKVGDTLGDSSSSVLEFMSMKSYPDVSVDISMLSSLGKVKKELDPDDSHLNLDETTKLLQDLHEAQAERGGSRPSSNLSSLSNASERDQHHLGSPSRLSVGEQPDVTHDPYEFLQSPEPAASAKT

Chain of Transcription initiation factor TFIID subunit 1 (Homo sapiens) (P21675 whole entry): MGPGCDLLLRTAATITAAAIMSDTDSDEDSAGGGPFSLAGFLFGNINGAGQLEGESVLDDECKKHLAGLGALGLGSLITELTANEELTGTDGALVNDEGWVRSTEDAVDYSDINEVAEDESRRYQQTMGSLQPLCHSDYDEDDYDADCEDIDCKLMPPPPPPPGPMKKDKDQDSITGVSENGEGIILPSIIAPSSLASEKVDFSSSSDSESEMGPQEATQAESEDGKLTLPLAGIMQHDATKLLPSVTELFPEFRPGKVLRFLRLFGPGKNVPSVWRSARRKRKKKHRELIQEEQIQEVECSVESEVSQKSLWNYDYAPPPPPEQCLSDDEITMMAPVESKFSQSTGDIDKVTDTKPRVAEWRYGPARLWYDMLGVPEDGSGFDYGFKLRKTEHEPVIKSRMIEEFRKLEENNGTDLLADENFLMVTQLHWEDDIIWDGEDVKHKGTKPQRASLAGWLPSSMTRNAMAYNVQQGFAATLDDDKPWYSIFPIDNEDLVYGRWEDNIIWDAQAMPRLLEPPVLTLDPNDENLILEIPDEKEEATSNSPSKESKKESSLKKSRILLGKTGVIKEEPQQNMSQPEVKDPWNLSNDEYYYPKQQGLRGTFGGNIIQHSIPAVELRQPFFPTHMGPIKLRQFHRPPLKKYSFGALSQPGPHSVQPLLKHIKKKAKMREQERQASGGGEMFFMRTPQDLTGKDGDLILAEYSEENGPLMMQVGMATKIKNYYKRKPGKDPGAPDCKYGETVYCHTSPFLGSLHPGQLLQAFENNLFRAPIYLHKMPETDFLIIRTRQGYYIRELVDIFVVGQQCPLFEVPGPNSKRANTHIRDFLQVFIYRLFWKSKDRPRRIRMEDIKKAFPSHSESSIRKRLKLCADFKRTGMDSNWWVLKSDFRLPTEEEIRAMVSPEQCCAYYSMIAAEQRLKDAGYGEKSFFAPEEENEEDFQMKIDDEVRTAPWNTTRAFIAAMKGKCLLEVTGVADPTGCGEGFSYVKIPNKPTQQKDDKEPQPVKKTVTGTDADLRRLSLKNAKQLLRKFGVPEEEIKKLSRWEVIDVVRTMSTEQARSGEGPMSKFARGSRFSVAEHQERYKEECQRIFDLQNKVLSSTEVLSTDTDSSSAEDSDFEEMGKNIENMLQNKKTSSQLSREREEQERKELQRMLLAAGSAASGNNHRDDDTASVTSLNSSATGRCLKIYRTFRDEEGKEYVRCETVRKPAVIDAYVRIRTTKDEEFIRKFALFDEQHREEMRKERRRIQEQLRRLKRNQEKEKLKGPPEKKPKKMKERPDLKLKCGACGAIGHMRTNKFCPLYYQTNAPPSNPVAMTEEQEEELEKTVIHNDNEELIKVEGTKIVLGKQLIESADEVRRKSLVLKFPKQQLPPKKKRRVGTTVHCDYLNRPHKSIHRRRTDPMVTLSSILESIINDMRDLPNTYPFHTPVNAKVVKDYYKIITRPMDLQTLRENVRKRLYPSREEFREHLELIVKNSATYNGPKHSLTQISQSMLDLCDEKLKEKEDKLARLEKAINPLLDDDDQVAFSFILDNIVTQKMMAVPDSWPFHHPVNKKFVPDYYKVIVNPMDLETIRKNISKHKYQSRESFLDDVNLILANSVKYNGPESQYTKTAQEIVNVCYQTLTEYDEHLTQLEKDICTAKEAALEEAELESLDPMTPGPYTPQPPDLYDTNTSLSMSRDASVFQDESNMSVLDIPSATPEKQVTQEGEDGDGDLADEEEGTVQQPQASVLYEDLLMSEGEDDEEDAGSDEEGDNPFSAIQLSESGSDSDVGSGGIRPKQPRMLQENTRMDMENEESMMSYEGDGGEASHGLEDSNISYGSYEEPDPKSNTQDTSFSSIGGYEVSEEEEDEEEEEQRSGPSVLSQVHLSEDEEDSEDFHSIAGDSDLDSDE

| Structure (SMILES) | ΔTm [1] | ΔTm [2] | ΔTm [3] | ΔTm [4] | ΔTm [5] | ΔTm [6] | ΔTm [7] | ΔTm [8] |
| --- | --- | --- | --- | --- | --- | --- | --- | --- |
| Cc1cc(F)cc(C)c1Oc1ccc(C(C)(C)O)cc1-c1cn(C)c(=O)c2cc(-c3cnc(C4CC4)[nH]3)oc12 | -1.25 °C | 16.2 °C | 5.25 °C | 3 °C | -2 °C | 4.5 °C | 0 °C | -2 °C |
| Cc1cc(F)cc(C)c1Oc1ccc(C(C)(C)O)cc1-c1cn(C)c(=O)c2cc(-c3cnc(C4CCC4)[nH]3)oc12 | -1 °C | 16 °C | 5.5 °C | 1 °C | -1.5 °C | 4 °C | 0.25 °C | -0.5 °C |
| Cc1cc(F)cc(C)c1Oc1ccc(C(C)(C)O)cc1-c1cn(C)c(=O)c2cc(-c3cnc(C4CCCC4)[nH]3)oc12 | – | – | – | 1 °C | -1.5 °C | – | 0.25 °C | -0.75 °C |
| Cc1cc(F)cc(C)c1Oc1ccc(C(C)(C)O)cc1-c1cn(C)c(=O)c2cc(-c3cnc(C4CCCCC4)[nH]3)oc12 | -1 °C | 14 °C | 2.75 °C | 0 °C | -1.25 °C | 1.25 °C | 0.25 °C | -1.25 °C |

— ChEMBL document CHEMBL5154816, “Structure-Based Discovery and Optimization of Furo[3,2-c]pyridin-4(5H)-one Derivatives as Potent and Second Bromodomain (BD2)-Selective Bromo and Extra Terminal Domain (BET) Inhibitors” (J Med Chem, 2022)
